For series [1], the system named is P. aeruginosa clinical isolates. Description: microbe, parasite or virus in culture. It counts as cell-based, Pseudomonas aeruginosa. As for the experimental part:
(§1) The antibacterial activity of the cephalosporins alone was included to ascertain the level of potentiation by the partnered BLI. BLIs were tested at a fixed concentration of 4 μg/ml in all combinations except cefepime-tazobactam, where tazobactam was fixed at a concentration of 8 μg/ml ([38]).
(§2) The in vitro antibacterial activity of the β-lactams alone or in combination with the BLIs was determined in cation-adjusted Mueller-Hinton broth (CAMHB) microdilution assays according to CLSI recommendations ([51]). […] The inocula for the broth microdilution assays were prepared by the broth culture method ([51]).

The test system of series [2] is Enterobacterales clinical isolates. In words: MIC distributions in panels of clinical isolates (MIC50, MIC90, % susceptible). It counts as cell-based. The procedure:
as §1, §2

In a further series the target is OXA-48 (Klebsiella pneumoniae, UniProt Q6XEC0). Description: Ki* determination, imipenem substrate.
Chain of OXA-48 (Q6XEC0 23-265, looked up, species assumed): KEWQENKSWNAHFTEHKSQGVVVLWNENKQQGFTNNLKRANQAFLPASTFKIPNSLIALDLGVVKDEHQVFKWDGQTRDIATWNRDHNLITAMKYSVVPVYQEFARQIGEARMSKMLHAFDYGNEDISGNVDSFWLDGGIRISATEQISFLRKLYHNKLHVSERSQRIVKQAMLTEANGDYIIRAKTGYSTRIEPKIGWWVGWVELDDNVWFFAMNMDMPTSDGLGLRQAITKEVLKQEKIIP
Series [3] relates to E. coli DH5α producing individual β-lactamases. Description: Broth microdilution MIC in engineered strains (BLI fixed at 4 μg/ml). It counts as cell-based, Escherichia coli. As to conditions: panel of 34 strains. As for the experimental part: The spectrum of antibacterial activity of cefepime-taniborbactam and the breadth of inhibitory activity of this next-generation cyclic boronate BLI were assessed in 34 engineered E. coli strains each overproducing an individual β-lactamase and directly compared to those of the clinically approved agent ceftazidime-avibactam. In this manner, the antibacterial activity of the BL-BLI combinations relative to that of the partnered cephalosporins alone provided a quantitative measure of β-lactam potentiation that directly reflects the levels of inhibition of β-lactamase function achieved by addition of BLI. The BLI concentration was fixed at 4 μg/ml, as described in Materials and Methods.
The isogenic strains were used to establish a spectrum of inhibitory activity against 34 β-lactamases that were engineered into E. coli DH5α cells carrying chromosomal AmpC (ESC-1), a non-ESBL enzyme unable to hydrolyze these third- or fourth-generation cephalosporins. […]. The DNA fragments containing the promoter, the signal sequence, and each β-lactamase-coding gene were synthesized and cloned into pTwist Chlor High Copy in DH5α at Twist Bioscience. The individual expression plasmids along with their GenBank accession numbers are listed in Table S2 in the supplemental material and below. The protein sequences of β-lactamases were obtained from the Beta-Lactamase DataBase (www.bldb.eu) ([47]). Expression of the β-lactamases was confirmed by verifying decreased susceptibility to example test antibiotics that are known substrates of the enzymes. E. coli DH5α carrying pTU501, which expressed only the TEM-1 signal sequence from the bla promoter, was used as a control. The plasmid sequences are available through GenBank (Table S2).
(§3) The in vitro antibacterial activity of the β-lactams alone or in combination with the BLIs was determined in cation-adjusted Mueller-Hinton broth (CAMHB) microdilution assays according to CLSI recommendations ([51]). […]. The inocula for the broth microdilution assays were prepared by the broth culture method ([51]). […]

Another series has as its target IMP-1 (Serratia marcescens, UniProt P52699). Description: Inhibition assay, nitrocefin substrate. Conditions: class B.
For the next series, the system named is K. pneumoniae. In words: microbe, parasite or virus in culture. Conditions: Klebsiella pneumoniae, read-out: MIC. It counts as cell-based.
Source text: (§4) The antibacterial activity of cefepime-taniborbactam was compared to that of ceftazidime-avibactam, ceftolozane-tazobactam, and cefepime-tazobactam against a diverse panel of Enterobacterales and P. aeruginosa clinical isolates with defined β-lactamase subtypes (see Table S1 in the supplemental material). IMP-producing strains were excluded, as none of the BLI-protected cephalosporins inhibited IMP sufficiently to provide a clinically relevant rescue of the partner β-lactam, a characteristic also shared by approved BLI-protected carbapenems (meropenem-vaborbactam and imipenem-relebactam). […] The antibacterial activity of the cephalosporins alone was included to ascertain the level of potentiation by the partnered BLI. BLIs were tested at a fixed concentration of 4 μg/ml in all combinations except cefepime-tazobactam, where tazobactam was fixed at a concentration of 8 μg/ml ([38]). The collection comprised 143 clinical isolates collected from 2005 and 2018.
as §3

A further series deals with E. coli. Description: microbe, parasite or virus in culture. It counts as cell-based. As to conditions: Escherichia coli, read-out: MIC.
Source text: as §4, §3

A further series deals with P. aeruginosa. In words: microbe, parasite or virus in culture. It counts as cell-based. As to conditions: Pseudomonas aeruginosa, read-out: MIC.
Source text: as §4, §3

The subject of series [4] is DrugMatrixScreen panel of pharmacological targets. Description: DrugMatrixScreen panel (binding, enzymatic, uptake assays; Eurofins/Panlabs). Conditions: 100 μM.
In series [5] the target is T1, P99 AmpC (Enterobacter cloacae, UniProt P05364). Conditions: half-life of active-site occupancy.
T1 sequence (P05364 21-381): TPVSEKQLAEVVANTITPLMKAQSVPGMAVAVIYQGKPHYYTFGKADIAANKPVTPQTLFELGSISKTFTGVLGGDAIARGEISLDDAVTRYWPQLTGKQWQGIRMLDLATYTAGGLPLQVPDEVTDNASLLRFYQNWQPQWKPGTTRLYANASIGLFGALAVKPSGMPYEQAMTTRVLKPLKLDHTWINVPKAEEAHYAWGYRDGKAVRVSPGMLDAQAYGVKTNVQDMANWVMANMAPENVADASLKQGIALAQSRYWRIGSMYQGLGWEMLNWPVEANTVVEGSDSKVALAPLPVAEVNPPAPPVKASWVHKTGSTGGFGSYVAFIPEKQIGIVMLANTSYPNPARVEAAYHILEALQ
Procedure: (§5) A reversible two-step inhibition model was fit to the data.
(§6) Pseudo-first-order rate constants of enzyme inactivation (kobs) were determined in the presence of various inhibitor concentrations by fitting equation 2 to the time courses.(2) P=Vst+(V0−Vs)(1−e^−kt)/k where P is product, Vs is rate at steady state, t is time, V0 is initial velocity, and k is rate of inactivation. A plot of kobs versus the inhibitor concentrations generated a linear plot with a slope of (k2/Ki) and a y intercept of k−2 (equation 3). The reported values were corrected for the substrate concentration and the Km for each substrate-enzyme combination, as defined by the 1 + ([S]/Km) term in equation 4, where S is the substrate concentration, used to obtain the second-order rate constant k2/Ki and the off rate (k−2). The error values reported are standard errors from the fit.(3) kobs=k−2+(k2/Ki)[I]/[1+([S]/Km)]
(§7) The percentage of enzyme activity at each assay point was determined by comparison to the activity of the enzyme in the absence of inhibitor, and the recovery of enzymatic activity was fit to a single exponential with the associated standard deviation.
Series [6] has as its target T2, KPC-2 (Klebsiella pneumoniae, UniProt Q9F663). In words: biochemical.
Procedure: as §5, §6, §7
Series [7] deals with E. coli, K. pneumoniae, and P. aeruginosa reference type isolates. Description: MIC against panel of seven reference type isolates. It counts as cell-based. As for the experimental part: […]. This panel encompassed 3 E. coli, 2 K. pneumoniae, and 2 P. aeruginosa isolates and included four quality control (QC) isolates for broth microdilution ([37]). […]. Among the β-lactamase-producing Enterobacterales isolates, E. coli NCTC 13353 producing CTX-M-15 and K. pneumoniae BAA-1705 producing KPC-2 are routine QC isolates used for the testing of cefepime-taniborbactam ([37]). […].
as §3

For a further series, the target named is VIM-2 (Escherichia coli, UniProt Q5U7L7). In words: Steady-state competitive inhibition, nitrocefin substrate.
The target in a further series is SHV-5 (Klebsiella pneumoniae, UniProt P0A3M1). Description: Ki* determination, cefotaxime substrate.
Chain of SHV-5 (P0A3M1 22-286): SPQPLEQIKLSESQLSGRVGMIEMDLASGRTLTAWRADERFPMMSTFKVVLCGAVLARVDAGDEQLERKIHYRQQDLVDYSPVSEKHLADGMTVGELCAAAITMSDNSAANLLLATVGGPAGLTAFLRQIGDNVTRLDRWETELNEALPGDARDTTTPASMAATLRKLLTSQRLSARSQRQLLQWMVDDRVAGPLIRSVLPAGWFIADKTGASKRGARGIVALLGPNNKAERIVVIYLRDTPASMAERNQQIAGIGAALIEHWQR
Series [8] addresses T3, CTX-M-15 (Escherichia coli, UniProt Q9EXV5). Conditions: half-life of active-site occupancy.
Procedure: as §5, §6, §7
The target of series [9] is T1, P99 AmpC. Description: biochemical.
Procedure: as §5, §6, §7
Series [10] deals with T3, CTX-M-15. Description: biochemical.
Procedure: as §5, §6, §7
The target in series [11] is T2, KPC-2. Conditions: half-life of active-site occupancy.
Procedure: as §5, §6, §7
A further series deals with NDM-1 (Klebsiella pneumoniae, UniProt C7C422). Description: Steady-state competitive inhibition, cefotaxime substrate.
Chain of NDM-1 (C7C422 29-270, looked up, species assumed): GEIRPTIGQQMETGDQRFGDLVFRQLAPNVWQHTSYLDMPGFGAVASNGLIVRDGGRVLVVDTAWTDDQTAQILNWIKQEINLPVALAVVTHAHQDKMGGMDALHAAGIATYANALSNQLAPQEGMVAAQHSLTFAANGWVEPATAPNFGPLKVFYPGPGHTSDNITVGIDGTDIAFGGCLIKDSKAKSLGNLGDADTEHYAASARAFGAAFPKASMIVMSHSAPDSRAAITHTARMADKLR
For series [12], the system named is serine β-lactamases (SBLs). Description: Kinetic parameters and Ki, ranges over serine β-lactamases. Conditions: CTX-M-15, P99 AmpC, and KPC-2.
Procedure: as §5, §6, §7
The subject of series [13] is VIM-2 and NDM-1 metallo-β-lactamases. In words: Inhibition of VIM-2 and NDM-1 MBLs (modality, reversibility, range). As to conditions: up to 50 μM.

Read-outs that look alike come from different tables or passages of the source.

Chain of IMP-1 (P52699 19-246 limits assumed): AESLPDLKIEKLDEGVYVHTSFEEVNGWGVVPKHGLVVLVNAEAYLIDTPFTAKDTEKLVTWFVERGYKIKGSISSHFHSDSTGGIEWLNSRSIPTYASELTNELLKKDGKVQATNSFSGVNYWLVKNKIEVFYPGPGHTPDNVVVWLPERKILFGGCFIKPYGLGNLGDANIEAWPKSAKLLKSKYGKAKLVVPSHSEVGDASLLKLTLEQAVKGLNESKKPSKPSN
T2 sequence (Q9F663 25-293, looked up, species assumed): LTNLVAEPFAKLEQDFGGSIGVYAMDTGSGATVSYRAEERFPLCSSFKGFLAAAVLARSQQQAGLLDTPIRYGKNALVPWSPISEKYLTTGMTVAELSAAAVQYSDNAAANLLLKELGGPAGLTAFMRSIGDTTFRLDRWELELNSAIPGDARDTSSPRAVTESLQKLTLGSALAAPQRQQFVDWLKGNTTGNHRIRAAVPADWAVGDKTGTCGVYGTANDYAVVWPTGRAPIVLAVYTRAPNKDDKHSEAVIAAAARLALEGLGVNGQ
T3 sequence (Q9EXV5 29-291, species assumed): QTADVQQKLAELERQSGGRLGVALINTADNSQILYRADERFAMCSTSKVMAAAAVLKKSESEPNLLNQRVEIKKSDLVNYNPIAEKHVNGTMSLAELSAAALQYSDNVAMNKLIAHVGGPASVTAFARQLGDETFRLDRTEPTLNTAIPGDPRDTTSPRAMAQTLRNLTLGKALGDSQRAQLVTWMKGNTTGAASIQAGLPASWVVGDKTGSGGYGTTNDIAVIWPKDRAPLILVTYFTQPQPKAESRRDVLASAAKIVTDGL
Procedure for OXA-48: as §6
Procedure for SHV-5: as §6

On to `C[C@]1(Cn2ccnn2)[C@H](C(=O)O)N2C(=O)C[C@H]2S1(=O)=O` [tazobactam], for which, in series [1] (14 isolates, subdivision 3), the “fold reduction of cefepime MIC90 by addition of BLI” value is recorded as 2 fold and the “fold reduction of ceftolozane MIC90 by addition of BLI” value worked out at 4 fold.
What is called Ki is a dissociation constant, usually derived from enzyme kinetics or from competition with a known ligand. Usually inhibition stands for the relative decrease from the control value, in per cent. A high value points to strong suppression. As to `NCCN[C@H]1CC[C@H](CC(=O)N[C@H]2Cc3cccc(C(=O)O)c3OB2O)CC1` [Taniborbactam], the MIC90 in [2] turned out to be 1 µg/mL; in series [1] (Pseudomonas aeruginosa, all 41 isolates of P. aeruginosa), 4 µg/mL. Moreover, the Ki at OXA-48 is 350 ± 7 nM; on IMP-1, not below 30000 nM; on KPC-2 [6] it was 4 ± 1 nM; at VIM-2, 19 ± 1 nM; at SHV-5, 3 ± 0.2 nM; at P99 AmpC [9] it was 2 ± 0.3 nM. Affinity at CTX-M-15 [10] was put at a Ki of 17 ± 2 nM. Moreover, the “modal potentiation of partner cephalosporin MIC” value in series [3] was found to be 512 fold. The MIC in the series on K. pneumoniae (ATCC13883, K. pneumoniae ATCC 13883, enzyme content None) was 512 µg/mL; with K. pneumoniae (BAA1705, K. pneumoniae BAA 1705, KPC-2), 1020 µg/mL; in the series on E. coli (ATCC25922, E. coli ATCC 25922, enzyme content None), 512 µg/mL; in the series on E. coli (E. coli CDC-0452, NDM), 512 µg/mL; in the series with E. coli (NCTC13353, E. coli NCTC 13353, CTX-M-15), 512 µg/mL; in the series with P. aeruginosa (ATCC27853, P. aeruginosa ATCC 27853, PDC-5), 1020 µg/mL. Also, the MIC with P. aeruginosa (P. aeruginosa CDC-0457, VIM) is 1020 µg/mL; in series [7], not below 512 µg/mL. For the same compound, the “inhibition, off-target” value in series [4] (128 of 129 in vitro assays) is on record as not above 23%. In series [4] (the one exception, a β-lactamase), this compound showed an inhibition of more than 50%. Further, the t1/2 at P99 AmpC [5] is 30 ± 3 min; on CTX-M-15 [8], 34 ± 2 min; on KPC-2 [11], 105 ± 5 min. The antibacterial activity alone result in series [7] (taniborbactam alone) was “lacks antibacterial activity”.
For orientation: koff means the rate constant with which the complex falls apart. A low value points to a long-lived complex. As to `O=C(O)C[C@@H]1CC[C@H](NC(=O)Cc2cccs2)B(O)O1` [Vaborbactam], the Ki on NDM-1 is more than 30000 nM; on OXA-48, 350 ± 7 nM; at IMP-1, more than 30000 nM; on KPC-2 [6], 22 ± 2 nM; at VIM-2, more than 30000 nM; on P99 AmpC [9], 53 ± 4 nM. Also, at CTX-M-15 [10], the affinity, expressed as Ki, was 158 ± 6 nM. Also, the “second-order rate constants (k2/Ki), order of magnitude” value in series [12] is listed as ~10^3 M^−1 s^−1. The “inhibition of MBLs” value in series [13] is “no significant inhibition”. Moreover, the t1/2 at P99 AmpC [5] amounted to 32 ± 3 min; on CTX-M-15 [8], 5 ± 0.2 min; at KPC-2 [11], 21 ± 2 min. Further, the koff at KPC-2 [6] is 0.00054 ± 5e-05 s⁻¹; on P99 AmpC [9], 0.00037 ± 3e-05 s⁻¹; on CTX-M-15 [10], 0.0023 ± 9e-05 s⁻¹. For the same compound, the kinact/KI at KPC-2 [6] (pH 7, read-out: k2/Ki) came out at 1200 ± 100 M⁻¹ s⁻¹; at P99 AmpC [9] (pH 7, read-out: k2/Ki), 1800 ± 100 M⁻¹ s⁻¹; at CTX-M-15 [10] (pH 7, read-out: k2/Ki), 1100 ± 100 M⁻¹ s⁻¹.
On to `NC(=O)[C@@H]1CC[C@@H]2CN1C(=O)N2OS(=O)(=O)O` [Avibactam], for which the inhibitory constant (Ki) is more than 30000 nM at NDM-1; more than 30000 nM on IMP-1; more than 30000 nM at VIM-2; 13 ± 0.3 nM at P99 AmpC [9]; 11 ± 1 nM on CTX-M-15 [10]. The “modal potentiation of partner cephalosporin MIC” value in series [3] was found to be 64 fold. The “inhibition of MBLs” value in [13] is listed as “no significant inhibition”. Further, the t1/2 is 249 ± 19 min on P99 AmpC [5], 29 ± 1 min at CTX-M-15 [8] and 66 ± 4 min at KPC-2 [11].

The values are drawn from paper PMC7038240 (Antimicrobial Agents and Chemotherapy, 2020).
